Source: PubChem BioAssay AID248 (DTP/NCI, 2004)
Values joined by “and” are separate entries in the source; they are usually repeats but may differ in a detail not shown here. Equal entries are not always repeated. Toxic doses and inconclusive results are not listed. Rule as the data show it: active = T/C of 150% or more; inactive = T/C below 125%.

Test system: L1210 leukemia ip in BDF1 mice, survival T/C
Test: NCI In Vivo Anticancer Drug Screen. Data for tumor model L1210 Leukemia (intraperitoneal) in B6D2F1 (BDF1) mice
Conditions: higher = longer survival
Method in brief: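 Each compound was tested against a transplantable tumor grown in mice. The endpoint was survival, with treated animals benchmarked against vehicle controls as a simple ratio.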

Measured: T/C

CN(C)/N=N/c1nc[nH]c1C(N)=O
inactive: endpoint: mean survival time, dose: 3.12 mg/kg/injection, schedule: Q#A X Z (ip), vehicle: carboxymethylcellulose (CMC) 100 % of control | endpoint: mean survival time, dose: 3.3 mg/kg/injection, schedule: Q01DX009 (ip), vehicle: carboxymethylcellulose (CMC) 104 % of control | endpoint: mean survival time, dose: 6.2 mg/kg/injection, schedule: Q01DX Z (ip), vehicle: saline 106 % of control | endpoint: mean survival time, dose: 6.25 mg/kg/injection, schedule: Q01DX006 (iv), vehicle: carboxymethylcellulose (CMC) 107 % of control | endpoint: mean survival time, dose: 6.25 mg/kg/injection, schedule: Q01DX Z (im), vehicle: carboxymethylcellulose (CMC) 101 % of control | endpoint: mean survival time, dose: 6.25 mg/kg/injection, schedule: Q01DX Z (ip), vehicle: carboxymethylcellulose (CMC) 106 % of control | endpoint: mean survival time, dose: 6.5 mg/kg/injection, schedule: Q01DX009 (ip), vehicle: carboxymethylcellulose (CMC) 100 % of control | endpoint: mean survival time, dose: 7.5 mg/kg/injection, schedule: Q03HX032 (ip), vehicle: carboxymethylcellulose (CMC) 108 % of control | endpoint: mean survival time, dose: 9.0 mg/kg/injection, schedule: Q01DX001 (ip), vehicle: carboxymethylcellulose (CMC) 101 % of control | endpoint: mean survival time, dose: 11.4 mg/kg/injection, schedule: Q03HX032 (ip), vehicle: carboxymethylcellulose (CMC) 106 % of control | endpoint: mean survival time, dose: 12.5 mg/kg/injection, schedule: Q01DX Z (im), vehicle: carboxymethylcellulose (CMC) 106 % of control | endpoint: mean survival time, dose: 12.5 mg/kg/injection, schedule: Q#A X034 (ip), vehicle: carboxymethylcellulose (CMC) 105 % of control | endpoint: mean survival time, dose: 13.0 mg/kg/injection, schedule: Q01DX009 (ip), vehicle: carboxymethylcellulose (CMC) 100 % of control and 102 % of control | endpoint: mean survival time, dose: 15.0 mg/kg/injection, schedule: Q04DX002 (ip), vehicle: carboxymethylcellulose (CMC) 93 % of control and 110 % of control | endpoint: mean survival time, dose: 18.75 mg/kg/injection, schedule: Q01DX001 (ip), vehicle: carboxymethylcellulose (CMC) 107 % of control | endpoint: mean survival time, dose: 23.7 mg/kg/injection, schedule: Q01DX009 (ip), vehicle: carboxymethylcellulose (CMC) 108 % of control | endpoint: mean survival time, dose: 25.0 mg/kg/injection, schedule: Q01DX005 (ip), vehicle: water 110 % of control | endpoint: mean survival time, dose: 25.0 mg/kg/injection, schedule: Q01DX009 (ip), vehicle: Klucel (hydroxypropylcellulose) (HPC) 104 % of control | endpoint: mean survival time, dose: 25.0 mg/kg/injection, schedule: Q04DX003 (ip), vehicle: other 95 % of control and 103 % of control | endpoint: mean survival time, dose: 26.0 mg/kg/injection, schedule: Q03HX032 (ip), vehicle: carboxymethylcellulose (CMC) 111 % of control | endpoint: mean survival time, dose: 29.0 mg/kg/injection, schedule: Q04DX002 (ip), vehicle: carboxymethylcellulose (CMC) 100 % of control | endpoint: mean survival time, dose: 30.0 mg/kg/injection, schedule: Q## X008 (ip), vehicle: other 101 % of control | endpoint: mean survival time, dose: 31.0 mg/kg/injection, schedule: Q01DX001 (ip), vehicle: carboxymethylcellulose (CMC) 103 % of control | endpoint: mean survival time, dose: 32.0 mg/kg/injection, schedule: Q01DX005 (ip), vehicle: water 101 % of control | endpoint: mean survival time, dose: 39.0 mg/kg/injection, schedule: Q01DX009 (ip), vehicle: steriod suspending solution 108 % of control | endpoint: mean survival time, dose: 39.0 mg/kg/injection, schedule: Q01DX Z (ip), vehicle: steriod suspending solution 108 % of control | endpoint: mean survival time, dose: 50.0 mg/kg/injection, schedule: Q01DX001 (ip), vehicle: water 103 % of control | endpoint: mean survival time, dose: 50.0 mg/kg/injection, schedule: Q01DX Z (oral), vehicle: carboxymethylcellulose (CMC) 109 % of control | endpoint: mean survival time, dose: 50.0 mg/kg/injection, schedule: Q02DX009 (ip), vehicle: carboxymethylcellulose (CMC) 103 % of control | endpoint: mean survival time, dose: 50.0 mg/kg/injection, schedule: Q04DX003 (ip), vehicle: Klucel (hydroxypropylcellulose) (HPC) 110 % of control | endpoint: mean survival time, dose: 50.0 mg/kg/injection, schedule: Q04DX003 (ip), vehicle: other 104 % of control and 106 % of control | endpoint: mean survival time, dose: 50.0 mg/kg/injection, schedule: Q04DX003 (ip), vehicle: water 108 % of control | endpoint: mean survival time, dose: 50.0 mg/kg/injection, schedule: Q07DX003 (oral), vehicle: other 100 % of control | endpoint: mean survival time, dose: 50.0 mg/kg/injection, schedule: Q## X003 (ip), vehicle: carboxymethylcellulose (CMC) 105 % of control | endpoint: mean survival time, dose: 58.0 mg/kg/injection, schedule: Q04DX002 (ip), vehicle: carboxymethylcellulose (CMC) 103 % of control | endpoint: mean survival time, dose: 60.0 mg/kg/injection, schedule: Q## X008 (ip), vehicle: other 107 % of control | endpoint: mean survival time, dose: 62.0 mg/kg/injection, schedule: Q01DX001 (ip), vehicle: carboxymethylcellulose (CMC) 106 % of control | endpoint: mean survival time, dose: 65.0 mg/kg/injection, schedule: Q02DX009 (ip), vehicle: steriod suspending solution 106 % of control and 110 % of control | endpoint: mean survival time, dose: 66.0 mg/kg/injection, schedule: Q04DX003 (ip), vehicle: carboxymethylcellulose (CMC) 107 % of control | endpoint: mean survival time, dose: 100.0 mg/kg/injection, schedule: Q01DX001 (ip), vehicle: steriod suspending solution 110 % of control | endpoint: mean survival time, dose: 100.0 mg/kg/injection, schedule: Q01DX001 (ip), vehicle: water 105 % of control | endpoint: mean survival time, dose: 100.0 mg/kg/injection, schedule: Q04DX002 (ip), vehicle: Klucel (hydroxypropylcellulose) (HPC) 105 % of control | endpoint: mean survival time, dose: 100.0 mg/kg/injection, schedule: Q04DX003 (ip), vehicle: water 110 % of control | endpoint: mean survival time, dose: 100.0 mg/kg/injection, schedule: Q07DX003 (oral), vehicle: other 104 % of control | endpoint: mean survival time, dose: 100.0 mg/kg/injection, schedule: Q## X003 (ip), vehicle: carboxymethylcellulose (CMC) 109 % of control | endpoint: mean survival time, dose: 100.0 mg/kg/injection, schedule: Q## X005 (ip), vehicle: carboxymethylcellulose (CMC) 107 % of control | endpoint: mean survival time, dose: 100.0 mg/kg/injection, schedule: Q#A X Z (ip), vehicle: carboxymethylcellulose (CMC) 102 % of control | endpoint: mean survival time, dose: 108.0 mg/kg/injection, schedule: Q02DX009 (ip), vehicle: steriod suspending solution 105 % of control and 107 % of control | endpoint: mean survival time, dose: 125.0 mg/kg/injection, schedule: Q01DX001 (ip), vehicle: carboxymethylcellulose (CMC) 109 % of control | endpoint: mean survival time, dose: 168.0 mg/kg/injection, schedule: Q01DX001 (ip), vehicle: carboxymethylcellulose (CMC) 107 % of control | endpoint: mean survival time, dose: 180.0 mg/kg/injection, schedule: Q02DX009 (ip), vehicle: steriod suspending solution 101 % of control and 104 % of control | endpoint: mean survival time, dose: 200.0 mg/kg/injection, schedule: Q01DX001 (ip), vehicle: water 108 % of control | endpoint: mean survival time, dose: 200.0 mg/kg/injection, schedule: Q01DX006 (iv), vehicle: carboxymethylcellulose (CMC) 102 % of control | endpoint: mean survival time, dose: 264.0 mg/kg/injection, schedule: Q01DX001 (ip), vehicle: other 110 % of control | endpoint: mean survival time, dose: 300.0 mg/kg/injection, schedule: Q01DX009 (ip), vehicle: steriod suspending solution 108 % of control | endpoint: mean survival time, dose: 300.0 mg/kg/injection, schedule: Q01DX Z (ip), vehicle: steriod suspending solution 108 % of control | endpoint: mean survival time, dose: 300.0 mg/kg/injection, schedule: Q03DX Z (ip), vehicle: carboxymethylcellulose (CMC) 103 % of control | endpoint: mean survival time, dose: 336.0 mg/kg/injection, schedule: Q01DX001 (ip), vehicle: carboxymethylcellulose (CMC) 109 % of control | endpoint: mean survival time, dose: 400.0 mg/kg/injection, schedule: Q01DX009 (ip), vehicle: other 106 % of control and 108 % of control | endpoint: mean survival time, dose: 400.0 mg/kg/injection, schedule: Q01DX009 (ip), vehicle: water 102 % of control | endpoint: mean survival time, dose: 400.0 mg/kg/injection, schedule: Q01DX Z (sc), vehicle: carboxymethylcellulose (CMC) 108 % of control | endpoint: mean survival time, dose: 400.0 mg/kg/injection, schedule: Q## X009 (ip), vehicle: carboxymethylcellulose (CMC) 110 % of control | endpoint: mean survival time, dose: 800.0 mg/kg/injection, schedule: Q01DX Z (oral), vehicle: carboxymethylcellulose (CMC) 96 % of control | endpoint: median survival time, dose: 20.0 mg/kg/injection, schedule: Q01DX009 (ip), vehicle: Klucel (hydroxypropylcellulose) (HPC) 106 % of control | endpoint: median survival time, dose: 20.0 mg/kg/injection, schedule: Q01DX015 (ip), vehicle: Klucel (hydroxypropylcellulose) (HPC) 110 % of control | endpoint: median survival time, dose: 65.0 mg/kg/injection, schedule: Q01DX001 (ip), vehicle: steriod suspending solution 100 % of control | endpoint: median survival time, dose: 65.0 mg/kg/injection, schedule: Q01DX009 (ip), vehicle: Klucel (hydroxypropylcellulose) (HPC) 110 % of control | endpoint: median survival time, dose: 65.0 mg/kg/injection, schedule: Q04DX003 (ip), vehicle: steriod suspending solution 110 % of control | endpoint: median survival time, dose: 108.0 mg/kg/injection, schedule: Q01DX001 (ip), vehicle: steriod suspending solution 110 % of control | endpoint: median survival time, dose: 108.0 mg/kg/injection, schedule: Q01DX014 (ip), vehicle: Klucel (hydroxypropylcellulose) (HPC) 94 % of control | endpoint: median survival time, dose: 108.0 mg/kg/injection, schedule: Q04DX003 (ip), vehicle: steriod suspending solution 110 % of control | endpoint: median survival time, dose: 180.0 mg/kg/injection, schedule: Q01DX001 (ip), vehicle: steriod suspending solution 100 % of control | endpoint: median survival time, dose: 180.0 mg/kg/injection, schedule: Q01DX014 (ip), vehicle: Klucel (hydroxypropylcellulose) (HPC) 108 % of control | endpoint: median survival time, dose: 300.0 mg/kg/injection, schedule: Q01DX001 (ip), vehicle: steriod suspending solution 110 % of control | endpoint: median survival time, dose: 300.0 mg/kg/injection, schedule: Q01DX013 (ip), vehicle: Klucel (hydroxypropylcellulose) (HPC) 105 % of control and 107 % of control | endpoint: median survival time, dose: 300.0 mg/kg/injection, schedule: Q01DX014 (ip), vehicle: Klucel (hydroxypropylcellulose) (HPC) 101 % of control | endpoint: median survival time, dose: 400.0 mg/kg/injection, schedule: Q04DX003 (ip), vehicle: Klucel (hydroxypropylcellulose) (HPC) 110 % of control | endpoint: median survival time, dose: 500.0 mg/kg/injection, schedule: Q01DX001 (ip), vehicle: steriod suspending solution 110 % of control | endpoint: median survival time, dose: 500.0 mg/kg/injection, schedule: Q01DX013 (ip), vehicle: Klucel (hydroxypropylcellulose) (HPC) 105 % of control and 107 % of control | endpoint: median survival time, dose: 500.0 mg/kg/injection, schedule: Q01DX014 (ip), vehicle: Klucel (hydroxypropylcellulose) (HPC) 102 % of control | endpoint: median survival time, dose: 833.0 mg/kg/injection, schedule: Q01DX009 (ip), vehicle: Klucel (hydroxypropylcellulose) (HPC) 110 % of control | endpoint: median survival time, dose: 1600.0 mg/kg/injection, schedule: Q04DX003 (ip), vehicle: Klucel (hydroxypropylcellulose) (HPC) 95 % of control
